Results as given in patent US20260241048A1, “PSMA-TARGETED RADIOPHARMACEUTICALS AND DNA DAMAGE RESPONSE INHIBITOR COMBINATION THERAPY” (FUSION PHARMACEUTICALS INC., priority 2023, published 2026).

Tests used:
PC3-PSMA xenograft [1] = assay: In vivo combination study of ^225Ac-Compound I and olaparib in PC3-PSMA tumor xenograft bearing mouse model
Experimental: An in vivo combination study was conducted with ^225Ac-Compound I and olaparib using a PSMA overexpressing PC3 (PC3-PSMA, prostate cancer) tumor xenograft bearing mouse model. Groups of mice (n=5/group) were treated with ^225Ac-Compound I administered as a single dose (intravenous), at a dose sub-optimal for monotherapeutic efficacy (1.23 MBq/kg or 1 μCi, based on 30 g mice). Additional groups of mice (n=5/group) were dosed daily with olaparib (oral gavage) using a dose range of 25, 50, or 100 mg/kg for 28 consecutive days in combination with ^225Ac-Compound I. Olaparib dosing started on the same day that ^225Ac-Compound I was dosed (FIG. 1). Olaparib monotherapy and vehicle control groups (n=5/group) were included as controls. Tumor measurements were taken 2-3 times per week and used to calculate tumor volume. Study duration was for 50 days after initial therapeutic administration.
Tumor growth in study animals was tracked over time and expressed as Relative Tumor Volume (RTV; tumor volume on day X divided by initial tumor volume on day 0) (FIGS. 2A-2C). Single agent olaparib monotherapy was found ineffective at all dose levels tested.

PC3-PSMA xenograft [2] = assay: In vivo combination study of ^225Ac-Compound I and elimusertib in PC3-PSMA tumor xenograft bearing mouse model; settings: 1.23 MBq/kg [^225Ac]-Compound I single i.v. dose combined with elimusertib 5, 20 and 40 mg/kg; compared to either monotherapy or vehicle
Experimental: Groups of mice (n=5/group) were treated with ^225Ac-Compound I, administered as a single dose (intravenous), at a dose sub-optimal for monotherapeutic efficacy (1.23 MBq/kg or 1 μCi, based on 30 g mice). […] Tumor measurements were taken 2-3 times per week and used to calculate tumor volume. Study duration was 61 days after initial therapeutic administration.
Tumor growth was tracked over time and expressed as Relative Tumor Volume (RTV; tumor volume on day X divided by initial tumor volume on day 0) (FIGS. 4A-4C).

Structure (SMILES) | Tumor growth inhibition (Relative Tumor Volume) (PC3-PSMA xenograft [1]; 1.23 MBq/kg [^225Ac]-Compound I single i.v. dose combined with olaparib 25, 50 or 100 mg/kg daily, compared to either monotherapy or vehicle) | Tumor growth inhibition (Relative Tumor Volume) (PC3-PSMA xenograft [2]) | Tumor growth (Relative Tumor Volume) (PC3-PSMA xenograft [1]; single agent olaparib monotherapy, oral gavage daily for 28 days, all dose levels tested (25, 50, 100 mg/kg))
O=C(O)CC[C@H](NC(=O)N[C@@H](CCCCNC(=O)CCCCCCC(=O)NCCCC[C@@H](NC(=O)[C@@H](Cc1ccccc1)NC(=O)[C@@H](Cc1ccc(O)c(I)c1)NC(=O)CCC(C(=O)O)N1CCN(CC(=O)O)CCN(CC(=O)O)CCN(CC(=O)O)CC1)C(=O)O)C(=O)O)C(=O)O (stereo partly drawn) [[^225Ac]-Compound I, metal not drawn] | enhanced tumor growth inhibition | enhanced tumor growth inhibition | 
O=C(c1cc(Cc2n[nH]c(=O)c3ccccc23)ccc1F)N1CCN(C(=O)C2CC2)CC1 [olaparib, reference compound] |  |  | ineffective
